# Tests used:
# Lactobacilli strains = assay: Bacterial growth curve with lactose as growth medium; format: cell-based, Lactobacillus; conditions: around 13 hours, from approximately 6.5, L. plantarum, L. casei, L. salivarius, L. rhanmosus, L. delbrueckii
# Protocol: Bacterial growth curve determination was undertaken by sampling cultures at 0 h, 3 h, 5 h, 8 and 24 h intervals using a 100 μL of dilution series of culture in 900 μL PBS. 20 μL of each series was spread onto a jar and with a negative control and growth assessed.
# Bacterial count of several of the strains was assessed by using 0.1% lactose as the growth medium.
# Bacterial count of several of the strains was assessed by using 5% lactose as the growth medium. FIGS. 2A-2G show the bacterial count over time using 5% lactose as a growth medium for L. plantarum, L. casei, L. salivarius, L. delbrueckii, L. rhanmosus, L. acidophilus and L. helveticus.
# Bifidobacteria = assay: Anaerobic cultures, gut bacterial groups by fluorescent in situ hybridisation: Bifidobacteria; format: cell-based; design: Bifidobacteria 24: unit not given here; conditions: for Bifidobacteria 24: 24 hours, anaerobic culture, inoculum 6.85; for Bifidobacteria 24 hr % change: 24 hr vs inoculum
# Protocol: (§1) In these experiments, anaerobic cultures were tested to evaluate the in vitro utilisation of a novel Lactobacillus reuteri galactooligosaccharide by monitoring the populations of gut bacterial groups at 24 hours using fluorescent in situ hybridisation, and short-chain fatty acid […]. Fructooligosaccharides (FOS), melibiose and raffinose were used as reference carbohydrates.
# Total count = assay: Anaerobic cultures, gut bacterial groups by fluorescent in situ hybridisation: total count; format: cell-based; design: Total count 24: unit not given here; conditions: for Total count 24: 24 hours, anaerobic culture, inoculum 8.84; for Total count 24 hr % change: 24 hr vs inoculum
# Protocol: as §1
# Bacteroides = assay: Anaerobic cultures, gut bacterial groups by fluorescent in situ hybridisation: Bacteroides; format: cell-based; design: Bacteroides 24: unit not given here; conditions: for Bacteroides 24: 24 hours, anaerobic culture, inoculum 7.98; for Bacteroides 24 hr % change: 24 hr vs inoculum
# Protocol: as §1
# E. coli = assay: Anaerobic cultures, gut bacterial groups by fluorescent in situ hybridisation: E. coli; format: cell-based; design: E. coli 24: unit not given here; conditions: for E. coli 24: 24 hours, anaerobic culture, inoculum 8.14; for E. coli 24 hr % change: 24 hr vs inoculum
# Protocol: as §1
# Clostridia = assay: Anaerobic cultures, gut bacterial groups by fluorescent in situ hybridisation: Clostridia; format: cell-based; design: Clostridia 24: unit not given here; conditions: for Clostridia 24: 24 hours, anaerobic culture, inoculum 7.55; for Clostridia 24 hr % change: 24 hr vs inoculum
# Protocol: as §1
# Lactobacilli = assay: Anaerobic cultures, gut bacterial groups by fluorescent in situ hybridisation: Lactobacilli; format: cell-based; design: Lactobacilli 24: unit not given here; conditions: for Lactobacilli 24: 24 hours, anaerobic culture, inoculum 7.15; for Lactobacilli 24 hr % change: 24 hr vs inoculum
# Protocol: as §1
# Eubacteria = assay: Anaerobic cultures, gut bacterial groups by fluorescent in situ hybridisation: Eubacteria; format: cell-based; design: Eubacteria 24: unit not given here; conditions: for Eubacteria 24: 24 hours, anaerobic culture, inoculum 8.06; for Eubacteria 24 hr % change: 24 hr vs inoculum
# Protocol: as §1
SMILES,"bacterial count (Lactobacilli strains; 0.1% lactose as growth medium, L. fermentum)","bacterial count (Lactobacilli strains; 5% lactose as growth medium, L. acidophilus, L. helveticus)",Bifidobacteria 24 (Bifidobacteria),Bifidobacteria 24 hr % change (Bifidobacteria) [%],Total count 24 (Total count),Total count 24 hr % change (Total count) [%],Bacteroides 24 (Bacteroides),Bacteroides 24 hr % change (Bacteroides) [%],E. coli 24 (E. coli),E. coli 24 hr % change (E. coli) [%],Clostridia 24 (Clostridia),Clostridia 24 hr % change (Clostridia) [%],Lactobacilli 24 (Lactobacilli),Lactobacilli 24 hr % change (Lactobacilli) [%],Eubacteria 24 (Eubacteria),Eubacteria 24 hr % change (Eubacteria) [%]
OC[C@H]1O[C@@H](O[C@H]2[C@H](O)[C@@H](O)C(O)O[C@@H]2CO)[C@H](O)[C@@H](O)[C@H]1O (stereo partly drawn) [lactose],over 9.5 log 10 CFU/ml,over 9.5 log 10 CFU/ml,–,–,–,–,–,–,–,–,–,–,–,–,–,–
"OC[C@H]1O[C@H](OCC2O[C@@H](O)[C@H](O)[C@@H](O)[C@@H]2O)[C@H](O)[C@@H](O)[C@H]1O (stereo partly drawn) [Melibiose, melibiose]",–,–,7.33,107,9.14,103,7.9,99,7.66,94,7.65,101,7.43,104,7.84,97
"OC[C@H]1O[C@H](OC[C@H]2O[C@H](O[C@]3(CO)O[C@H](CO)[C@@H](O)[C@@H]3O)[C@H](O)[C@@H](O)[C@@H]2O)[C@H](O)[C@@H](O)[C@H]1O [Raffinose, raffinose]",–,–,7.69,112,9.19,104,8.08,101,8.03,99,7.81,103,7.45,104,8.69,108

# From US9913857B2, “Composition and methods of screening” (OPTIBIOTIX LIMITED, priority 2013, dated 2018)
